The results in this text go back to patent publication US8604053B2, “TRPV1 antagonists” (AbbVie Inc., priority 2008, dated 2013).

For data set [1], the target named is T1, CYP2C9 (Homo sapiens, UniProt P11712).
T1 construct: human liver microsomes (BD Gentest); tissue BD Gentest; host or cells: human liver microsomes
The data set can be described thus: CYP2C9 inhibition assay. Format: in vitro ADME. Conditions: human liver microsomes, substrate Luciferin-H; for inhibition at 25 min, 2.2 µM: pH 7.4, probe Luciferin-H (100 μM final), read-out: CYP2C9 % inh @ 2.2 μM. Here is the method: (§1) Stock solutions of test compounds were assayed in 96-well format for their ability to inhibit CYP2C9, CYP2D6, or CYP3A4 mediated metabolism of test substrates. Luciferin-H was used as the substrate for CYP2C9; 3-[2-(N,N-diethyl-N-methylammonium)ethyl]-7-methoxy-4-methylcoumarin (AMMC) was used as the substrate for CYP2D6; 7-benzyloxyquiniline (BZQ) was used as the substrate for CYP3A4. For each subtype, positive controls (sulphaphenazole in the case of CYP2C9; quinidine in the case of CYP2D6, ketoconazole in the case of CYP3A4) were used to validate assay results run in duplicate.
(§2) Pre-Incubation Mixture Preparation for CYP2C9 and CYP2D6: A pre-incubation mixture was prepared by combining 100 mM phosphate buffer (9.12 mL; pH 7.4), human liver microsomes (BD Gentest, 240 itt; final concentration: 0.4 mg/mL), and 10 mM nicotinamide adenine dinucleotide phosphate in 65.4 mM MgCl2 hexahydrate (120 μL; final concentration: 125 μM and 818 μM, respectively). To this was mixture is added a ‘regeneration’ mixture (120 μL) of 333 mM glucose-6-phosphate and 40 U/mL glucose-6-phosphate dehydrogenase in 5 mM sodium citrate (final concentration: 4 mM, 0.5 U/mL, and 0.06 mM, respectively).
Substrate Mixture Preparation for CYP2C9: To a solution of 25 mM phosphate buffer, (2.16 mL, pH 7.4) was added 5 mM Luciferin-H (Promega P450 Glo Assay V8792, 240 μL; final solution concentration 0.5 mM, final assay concentration 100 μM).
CYP2C9 Inhibiton Assay: To each well in the assay plate containing varying concentrations of test compound or control compound in DMSO (10 μL) Pre-Incubation Mixture (40 itt) was added to the wells and the assay plate was pre-incubated for 10 minutes at 37° C., with shaking or rocking. CYP2C9 Substrate Mixture (10 μL) was added to all wells and the assay plate was incubated for an additional 25 minutes at 37° C., with shaking or rocking. Final DMSO concentration was 1%. Luciferin-H detection reagent (Promega kit V8792, 50 μL) was added to all wells. The plate was then vortexed at ambient temperature for between 20 minutes and 2 hours, and the luminescence of each well was then read and recorded.
On the technique in general: Liver microsomes are a subcellular fraction often used to study metabolism.

For data set [2], the target named is T2, CYP2D6 (Homo sapiens, UniProt P10635).
T2 construct: human liver microsomes (BD Gentest); tissue BD Gentest; host or cells: human liver microsomes
The data set is described as follows: in vitro. Format: in vitro ADME. The settings on record: microsomes; for inhibition at 25 min, 2.2 µM: human, pH 7.4. As for the experimental part: as §1, §2
Substrate Mixture Preparation for CYP2D6: To a solution of 100 mM phosphate buffer, (2.80 mL, pH 7.4) was added 10 mM AMMC in acetonitrile (14 itt; final solution concentration 0.05 mM, final assay concentration 10 μM).
CYP2D6 Inhibiton Assay: To each well in the assay plate containing varying concentrations of test compound or control compound in DMSO (10 μL), Pre-Incubation Mixture (40 μL) was added to the wells and the assay plate was pre-incubated for 10 minutes at 37° C., with shaking or rocking. A pre-read of each well was performed at 390 nm and 460 nm extinction/emission. CYP2D6 Substrate Mixture (10 μL) was added to all wells and the assay plate was incubated for an additional […] at 37° C., with shaking or rocking. Final DMSO concentration was 1%. A post-read of each well was then performed at 390 nm and 460 nm extinction/emission.

Data set [3] in a line: Rat telemetry protocol, core body temperature. Format: in vivo. Conditions: core body temperature of rats one hour post dosing, 100 μmol/kg p.o., relative to vehicle. As for the experimental part:
Male, Sprague Dawley rats, 225-250 grams were anesthetized with Sevoflurane (Abbott Laboratories). Rats were placed on a heating pad and covered with a sterile surgical drape. A ventral midline abdominal incision was made and sterile cotton tip applicators were used to gently move internal tissue and expose the abdominal aorta for implantation of the telemetry catheter (Data Sciences International; TL11M2-050-PXT). Blood flow was temporarily stopped to the lower extremities (5-7 min) with Diffenbach clamps to allow the insertion of the telemetry catheter into the abdominal aorta. Once inserted, a sterile cellulose patch was placed over the catheter/aorta and secured using a small amount of tissue adhesive (Vetbond, 3M). Once catheter placement was complete, the clamps were removed and blood flow was restored to the lower extremities. Thetransmitter was placed in the intraperitoneal cavity. The transmitter suture rib was sewn into the abdominal sutures to secure it in place. The skin was closed using sterile wound clips and the animal removed from Sevoflurane. Buprenex ([…] s.c.; Phoenix) was administered for post-operative analgesia. Animals were maintained on a heating pad until ambulatory, and then individually housed with food and water ad lib. Surgical staples were removed after 7-10 days post-implantation. Rats were allowed a 2-week post-surgical recovery period before treatment with test compound. Oral dosing (p.o.) was at time zero, with rats receiving a single dose of vehicle (10% EtOH, 20% Tween-80, 70% PEG-400) or a 100 μmol/kg dose of compound dissolved in vehicle. Temperature measurements were recorded every 15 minutes for the duration of the study (24 hours).
Representative compounds described herein have the novel property of having limited transient temperature effect on core body temperature of a mammal (e.g. rats). For example, compounds tested alter core body temperature of rats by less than about +0.5° C. at about 1 hour after administration of a single dose (100 μmol/kg) of the test compounds orally, for example, in the range from about −2.5° C. to less than about +0.5° C., from about −0.5° C. to less than about +0.5° C.; or from about −0.3° C. to about +0.3° C.
The term “core body temperature” as used herein, means the temperature measured in the intraperitoneal cavity.

T1 sequence (P11712 whole entry): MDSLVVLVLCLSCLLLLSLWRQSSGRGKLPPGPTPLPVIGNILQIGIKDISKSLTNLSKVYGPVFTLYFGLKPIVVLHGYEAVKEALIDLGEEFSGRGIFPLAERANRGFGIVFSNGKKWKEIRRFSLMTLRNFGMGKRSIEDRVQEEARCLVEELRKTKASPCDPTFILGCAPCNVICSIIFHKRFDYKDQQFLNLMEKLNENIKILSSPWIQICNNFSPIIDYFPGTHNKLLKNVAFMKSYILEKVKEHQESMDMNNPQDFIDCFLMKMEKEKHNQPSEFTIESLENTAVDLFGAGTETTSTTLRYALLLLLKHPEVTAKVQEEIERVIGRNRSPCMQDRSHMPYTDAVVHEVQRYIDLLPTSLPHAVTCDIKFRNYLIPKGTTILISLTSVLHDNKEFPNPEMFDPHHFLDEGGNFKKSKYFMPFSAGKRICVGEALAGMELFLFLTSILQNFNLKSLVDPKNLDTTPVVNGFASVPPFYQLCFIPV
T2 sequence (P10635 whole entry): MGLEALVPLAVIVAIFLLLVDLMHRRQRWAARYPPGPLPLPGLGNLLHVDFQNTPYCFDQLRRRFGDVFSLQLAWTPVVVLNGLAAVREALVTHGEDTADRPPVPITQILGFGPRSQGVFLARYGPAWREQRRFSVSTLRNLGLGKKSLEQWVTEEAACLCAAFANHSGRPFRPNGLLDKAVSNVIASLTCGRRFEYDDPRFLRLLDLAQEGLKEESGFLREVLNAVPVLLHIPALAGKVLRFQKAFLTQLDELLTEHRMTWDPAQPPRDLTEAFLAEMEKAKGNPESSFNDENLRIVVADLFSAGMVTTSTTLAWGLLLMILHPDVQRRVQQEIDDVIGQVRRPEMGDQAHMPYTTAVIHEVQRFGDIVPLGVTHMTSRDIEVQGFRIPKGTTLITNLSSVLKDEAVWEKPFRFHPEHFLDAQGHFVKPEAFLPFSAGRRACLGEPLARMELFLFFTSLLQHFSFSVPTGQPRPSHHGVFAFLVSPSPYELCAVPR

With `Cc1cc2c(NC(=O)N[C@@H]3CC(C)(C)Oc4cc(F)ccc43)cccc2cn1` [Example 95, N-[(4R)-7-fluoro-2,2-dimethyl-3,4-dihydro-2H-chromen-4-yl]-N′-(3-methylisoquinolin-5-yl)urea], the inhibition at 25 min, 2.2 µM in data set [1] worked out at 0%; in data set [2] it was 3.5%. The “Δ Temp (° C.)” value in data set [3] was determined as 0.0 °C.

For the molecule `Cc1cc2c(NC(=O)N[C@@H]3CC(CF)(CF)Oc4ccc(F)cc43)cccc2cn1` [Example 65, N-[(4R)-6-fluoro-2,2-bis(fluoromethyl)-3,4-dihydro-2H-chromen-4-yl]-N′-(3-methylisoquinolin-5-yl)urea], the inhibition at 25 min, 2.2 µM came to 0% in data set [1] and 12% in data set [2]. Also, the “Δ Temp (° C.)” value in data set [3] stood at 0.0 °C.

For the molecule `CC1(C)C[C@@H](NC(=O)Nc2cccc3cnccc23)c2ccccc2O1` [Example 27, N-[(4R)-2,2-dimethyl-3,4-dihydro-2H-chromen-4-yl]-N′-isoquinolin-5-ylurea], the inhibition at 25 min, 2.2 µM in data set [1] turned out to be 48%. Also, the “Δ Temp (° C.)” value in data set [3] is −1.0 °C.

With `Cc1cc2c(NC(=O)N[C@@H]3CC(CF)(CF)Oc4c(OC(F)(F)F)cccc43)cccc2cn1` [Example 87, N-[(4R)-2,2-bis(fluoromethyl)-8-(trifluoromethoxy)-3,4-dihydro-2H-chromen-4-yl]-N′-(3-methylisoquinolin-5-yl)urea], the inhibition at 25 min, 2.2 µM in data set [1] was 25%; in data set [2], 9%. The “Δ Temp (° C.)” value in data set [3] was −2.0 °C.

As to `Cc1cc2c(NC(=O)N[C@@H]3CC(C)(C)Oc4c(F)cccc43)cccc2cn1` [Example 119, N-[(4R)-8-fluoro-2,2-dimethyl-3,4-dihydro-2H-chromen-4-yl]-N′-(3-methylisoquinolin-5-yl)urea], the inhibition at 25 min, 2.2 µM in data set [1] was found to be 2.1%; in data set [2], 8.7%. In data set [3], the “Δ Temp (° C.)” value turned out to be 0.0 °C.

With `Cc1cc2c(NC(=O)N[C@@H]3CC(C)(C)Oc4cc(C(F)(F)F)ccc43)cccc2cn1` [Example 118, N-[(4R)-2,2-dimethyl-7-(trifluoromethyl)-3,4-dihydro-2H-chromen-4-yl]-N′-(3-methylisoquinolin-5-yl)urea], the results for the inhibition at 25 min, 2.2 µM in data set [1] and in data set [2] were 7.8% and 21%, respectively. Besides, in data set [3], the “Δ Temp (° C.)” value was found to be 0.0 °C.

For the molecule `Cc1cc2c(NC(=O)N[C@@H]3CC(C)(C)Oc4c3ccc(F)c4F)cccc2cn1` [Example 113, N-[(4R)-7,8-difluoro-2,2-dimethyl-3,4-dihydro-2H-chromen-4-yl]-N′-(3-methylisoquinolin-5-yl)urea], the figures for the inhibition at 25 min, 2.2 µM in data set [1] and in data set [2] were 7.6% and 0%, respectively. Further, the “Δ Temp (° C.)” value in data set [3] worked out at 0.0 °C.

As to `Cc1cc2c(NC(=O)N[C@@H]3CC(CF)(CF)Oc4c(F)cccc43)cccc2cn1` [Example 85, N-[(4R)-8-fluoro-2,2-bis(fluoromethyl)-3,4-dihydro-2H-chromen-4-yl]-N′-(3-methylisoquinolin-5-yl)urea], the inhibition at 25 min, 2.2 µM in data set [1] worked out at 7.2%; in data set [2], 10%. Further, the “Δ Temp (° C.)” value in data set [3] is 0.2 °C.

Turning to `Cc1cc2c(NC(=O)N[C@@H]3CCOc4c(OC(F)(F)F)cccc43)cccc2cn1` [Example 66, N-(3-methylisoquinolin-5-yl)-N′-[(4R)-8-(trifluoromethoxy)-3,4-dihydro-2H-chromen-4-yl]urea], the inhibition at 25 min, 2.2 µM in data set [1] was 4.5%; in data set [2], 9.5%. In addition, in data set [3], the “Δ Temp (° C.)” value is −0.9 °C.

On to `Cc1cc2c(NC(=O)N[C@@H]3C[C@@](C)(CF)Oc4cc(Cl)ccc43)cccc2cn1` (single isomer, unassigned) [Example 122], for which the figures for the inhibition at 25 min, 2.2 µM in data set [1] and in data set [2] were 20% and 5%, respectively. In data set [3], the “Δ Temp (° C.)” value is 0.0 °C.

Consider `CC1(C)C[C@@H](NC(=O)Nc2cccc3cnccc23)c2ccc(C(F)(F)F)cc2O1` [Example 34, N-[(4R)-2,2-dimethyl-7-(trifluoromethyl)-3,4-dihydro-2H-chromen-4-yl]-N′-isoquinolin-5-ylurea], for which the inhibition at 25 min, 2.2 µM in data set [1] is 39%; in data set [2] it was 97%. Further, in data set [3], the “Δ Temp (° C.)” value is −1.6 °C.

In the case of `Cc1cc2c(NC(=O)N[C@@H]3CC(C)(C)Oc4c3ccc(F)c4Cl)cccc2cn1` [Example 110, N-[(4R)-8-chloro-7-fluoro-2,2-dimethyl-3,4-dihydro-2H-chromen-4-yl]-N′-(3-methylisoquinolin-5-yl)urea], the inhibition at 25 min, 2.2 µM came out at 13% in data set [1] and 1.4% in data set [2]. In data set [3], the “Δ Temp (° C.)” value is −1.1 °C.

Consider `CCCC1(CCC)C[C@@H](NC(=O)Nc2cccc3cnc(C)cc23)c2cccc(F)c2O1` [Example 68, N-[(4R)-8-fluoro-2,2-dipropyl-3,4-dihydro-2H-chromen-4-yl]-N′-(3-methylisoquinolin-5-yl)urea], for which the inhibition at 25 min, 2.2 µM was found to be 13% in data set [1] and 0% in data set [2]. The “Δ Temp (° C.)” value in data set [3] came out at 0.1 °C.

Regarding `Cc1cc2c(NC(=O)N[C@@H]3CC(CF)(CF)Oc4cc(Cl)ccc43)cccc2cn1` [Example 84, N-[(4R)-7-chloro-2,2-bis(fluoromethyl)-3,4-dihydro-2H-chromen-4-yl]-N′-(3-methylisoquinolin-5-yl)urea], the inhibition at 25 min, 2.2 µM in data set [1] came out at 3.7%; in data set [2], 49%. Also, in data set [3], the “Δ Temp (° C.)” value was 0.0 °C.

Consider `CCC1(CC)C[C@@H](NC(=O)Nc2cccc3cnc(Cl)cc23)c2cccc(F)c2O1` [Example 81, N-(3-chloroisoquinolin-5-yl)-N′-[(4R)-2,2-diethyl-8-fluoro-3,4-dihydro-2H-chromen-4-yl]urea], for which the inhibition at 25 min, 2.2 µM in data set [1] was 19%; in data set [2] it was 0.68%. Moreover, the “Δ Temp (° C.)” value in data set [3] was −0.5 °C.

“N-[(4R)-6,8-difluoro-2,2-dimethyl-3,4-dihydro-2H-chromen-4-yl]-N′-isoquinolin-5-ylurea [Example 17]”: the “CYP2C9 % inh @ 2.2 μM” value in data set [1] amounted to 50%. Moreover, the “CYP2D6 % inh @ 2.2 μM)” value in data set [2] (2.2 µM) is given as 100%. In data set [3], the “Δ Temp (° C.)” value was −1.5 °C.

For `CC1(C)C[C@@H](NC(=O)Nc2cccc3cnccc23)c2ccc(F)cc2O1` [Example 23, N-[(4R)-7-fluoro-2,2-dimethyl-3,4-dihydro-2H-chromen-4-yl]-N′-isoquinolin-5-ylurea], in data set [1], the inhibition at 25 min, 2.2 µM worked out at 56%. Moreover, the “Δ Temp (° C.)” value in data set [3] is −0.7 °C.
